Reference: ChEMBL document CHEMBL5230094, “Structure-activity relationships of Wee1 inhibitors: A review” (Eur J Med Chem, 2020)

Assays:
[1] = biological target: Proto-oncogene tyrosine-protein kinase Src (Homo sapiens, UniProt P12931); assay: Inhibition of c-Src (unknown origin)
[2] = system: MDA-MB-231; assay: Antiproliferative activity against human MDA-MB-231 cells
[3] = biological target: T1, Wee1-like protein kinase (Homo sapiens, UniProt P30291); assay: Inhibition of recombinant Wee1 (unknown origin) by TR-FRET assay
[4] = biological target: T2, Serine/threonine-protein kinase Chk1 (Homo sapiens, UniProt O14757); assay: Inhibition of CHK1 (unknown origin)
T2 sequence (O14757 whole entry): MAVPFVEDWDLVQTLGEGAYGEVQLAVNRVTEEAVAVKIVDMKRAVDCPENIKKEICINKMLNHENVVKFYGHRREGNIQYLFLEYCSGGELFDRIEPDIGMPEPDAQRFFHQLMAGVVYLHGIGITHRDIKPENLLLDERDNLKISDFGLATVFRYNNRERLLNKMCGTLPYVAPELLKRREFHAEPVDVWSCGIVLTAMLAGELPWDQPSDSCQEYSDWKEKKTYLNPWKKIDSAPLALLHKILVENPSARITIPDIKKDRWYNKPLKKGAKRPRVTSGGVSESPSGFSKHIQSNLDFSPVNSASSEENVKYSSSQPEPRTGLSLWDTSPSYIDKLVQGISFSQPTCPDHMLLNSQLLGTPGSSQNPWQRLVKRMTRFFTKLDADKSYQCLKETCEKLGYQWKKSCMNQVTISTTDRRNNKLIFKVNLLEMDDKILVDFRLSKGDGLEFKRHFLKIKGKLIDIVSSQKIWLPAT

[5] = biological target: T1, Wee1-like protein kinase; assay: Binding affinity to Wee1 (unknown origin) assessed as dissociation constant
[6] = system: A549; assay: Antiproliferative activity against human A549 cells by MTS based Cell Titer 96 viability assay; format: functional
[7] = biological target: T1, Wee1-like protein kinase; assay: Inhibition of human full length N-terminal GST tagged Wee1 expressed in E coli
[8] = biological target: T1, Wee1-like protein kinase; assay: Inhibition of recombinant Wee1 (unknown origin) incubated for 1 hr by TR-FRET assay

T1 sequence (P30291 whole entry): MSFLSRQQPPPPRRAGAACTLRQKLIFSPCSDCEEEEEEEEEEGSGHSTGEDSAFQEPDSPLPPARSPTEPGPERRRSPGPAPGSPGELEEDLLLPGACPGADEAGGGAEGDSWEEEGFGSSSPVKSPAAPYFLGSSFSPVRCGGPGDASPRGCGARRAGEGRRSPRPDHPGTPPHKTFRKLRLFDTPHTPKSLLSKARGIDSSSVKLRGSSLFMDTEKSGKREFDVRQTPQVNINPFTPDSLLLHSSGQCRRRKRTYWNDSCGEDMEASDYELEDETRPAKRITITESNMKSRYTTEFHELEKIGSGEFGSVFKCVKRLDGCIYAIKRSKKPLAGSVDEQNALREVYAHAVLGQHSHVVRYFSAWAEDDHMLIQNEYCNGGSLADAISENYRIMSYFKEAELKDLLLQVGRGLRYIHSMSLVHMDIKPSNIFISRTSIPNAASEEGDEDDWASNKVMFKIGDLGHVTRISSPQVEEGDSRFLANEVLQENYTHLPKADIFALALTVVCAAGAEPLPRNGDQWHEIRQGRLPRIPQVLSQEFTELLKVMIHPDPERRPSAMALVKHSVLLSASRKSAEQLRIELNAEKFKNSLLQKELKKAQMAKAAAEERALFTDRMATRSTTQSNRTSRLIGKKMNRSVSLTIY
Sequence of Proto-oncogene tyrosine-protein kinase Src (P12931 2-536 limits assumed): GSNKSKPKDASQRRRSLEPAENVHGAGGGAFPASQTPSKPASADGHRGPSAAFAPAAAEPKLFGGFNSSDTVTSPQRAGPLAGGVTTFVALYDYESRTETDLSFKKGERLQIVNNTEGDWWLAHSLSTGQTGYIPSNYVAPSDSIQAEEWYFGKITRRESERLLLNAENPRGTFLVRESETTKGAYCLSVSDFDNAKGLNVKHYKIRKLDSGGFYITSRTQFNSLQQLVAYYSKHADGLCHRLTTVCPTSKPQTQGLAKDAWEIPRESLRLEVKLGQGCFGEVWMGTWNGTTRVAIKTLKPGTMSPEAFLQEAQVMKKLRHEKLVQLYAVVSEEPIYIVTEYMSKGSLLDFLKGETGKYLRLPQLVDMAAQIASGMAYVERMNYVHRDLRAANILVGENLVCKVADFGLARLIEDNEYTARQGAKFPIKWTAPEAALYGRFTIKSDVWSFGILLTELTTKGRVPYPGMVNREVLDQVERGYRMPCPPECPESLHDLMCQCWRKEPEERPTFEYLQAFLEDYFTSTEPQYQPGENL

Structure (SMILES)	IC50 [1] [nM]	further results
Cc1cccc(C)c1-c1cc2cnc(Nc3ccccc3)nc2n(C)c1=O	14	–
Cn1c(=O)c(-c2c(Cl)ccc(O)c2Cl)cc2cnc(Nc3ccc(OCCCC(=O)O)cc3)nc21	99	–
COc1cc(Nc2c(C#N)cnc3cc(OCCCN4CCN(C)CC4)c(OC)cc23)c(Cl)cc1Cl [BOSUTINIB]	–	IC50 [2]: 1800 nM
C=CCn1c(=O)c2cnc(Nc3ccc(CCN(C)C)cc3)nc2n1-c1cccc(C(C)(C)O)n1	–	IC50 [3]: 1.7 nM
CCN(CC)CCOc1ccc(Nc2ncc3c(C)c(-c4c(C)cccc4C)c(=O)n(C)c3n2)cc1	360	–
CCN(CC)CCOc1ccc(Nc2ncc3cc(-c4c(Cl)cccc4Cl)c(=O)n(C)c3n2)cc1 [PD-0166285]	–	IC50 [4]: 72 nM
CC(=O)NCC(=O)N1[C@@H]2CC[C@H]1c1cc(Nc3ncc(C(F)(F)F)c(NC4CCC4)n3)ccc12	–	Kd [5]: 78.7 nM
CCOC(=O)N1CCc2c(sc3nc(SCC(=O)c4ccccc4)n(N)c(=O)c23)C1	–	IC50 [6]: 17800 nM; IC50 [7]: 22300 nM
C=CCn1c(=O)c2cnc(Nc3ccc(N4CCN(C(=O)OC)CC4)cc3)nc2n1-c1cccc(C(C)(C)O)n1	–	IC50 [8]: 27.8 nM

Second part, led by results:

IC50 [1] [nM]	Structure (SMILES)	further results
> 50000	CCN(CC)CCOc1ccc(Nc2ncc3c(C)c(-c4ccccc4Cl)c(=O)n(C)c3n2)cc1	–
4	Cn1c(=O)c(-c2c(Cl)cccc2Cl)cc2cnc(Nc3ccc(OCCCC(=O)O)cc3)nc21	–
13	Cn1c(=O)c(-c2c(Cl)cccc2Cl)cc2cnc(Nc3ccc(CC(N)=O)cc3)nc21	–
23	CCN(CC)CCOc1ccc(Nc2ncc3cc(-c4c(C)cccc4C)c(=O)n(C)c3n2)cc1	–
